Source: paper PMC13509954 (Antioxidants, 2026)

Target: lactoperoxidase (LPO) (Bos taurus, UniProt P80025)
Test: LPO inhibition, peroxidase selectivity profiling
Format: biochemical

| SMILES | IC50 |
| --- | --- |
| Cc1ccc2nc(-c3cccnc3)c(Nc3ccc4c(c3)OCO4)n2c1 [NE-2-6] | 890 nM |
| COc1ccc(-c2nc3cc(C)ccn3c2Nc2ccc3c(c2)OCO3)cc1 [NE-2-7] | 2250 nM |
| Cc1ccn2c(Nc3ccc4c(c3)OCO4)c(-c3ccc(O)cc3)nc2c1 [NE-2-8] | 1050 nM |
